Biological target: ATP-binding cassette sub-family C member 2 (Rattus norvegicus, UniProt Q63120)
Experiment: TP_TRANSPORTER: Western in vivo SD rat, liver
Format: functional, organism-based, Sprague-Dawley

ATP-binding cassette sub-family C member 2, sequence (Q63120 whole entry): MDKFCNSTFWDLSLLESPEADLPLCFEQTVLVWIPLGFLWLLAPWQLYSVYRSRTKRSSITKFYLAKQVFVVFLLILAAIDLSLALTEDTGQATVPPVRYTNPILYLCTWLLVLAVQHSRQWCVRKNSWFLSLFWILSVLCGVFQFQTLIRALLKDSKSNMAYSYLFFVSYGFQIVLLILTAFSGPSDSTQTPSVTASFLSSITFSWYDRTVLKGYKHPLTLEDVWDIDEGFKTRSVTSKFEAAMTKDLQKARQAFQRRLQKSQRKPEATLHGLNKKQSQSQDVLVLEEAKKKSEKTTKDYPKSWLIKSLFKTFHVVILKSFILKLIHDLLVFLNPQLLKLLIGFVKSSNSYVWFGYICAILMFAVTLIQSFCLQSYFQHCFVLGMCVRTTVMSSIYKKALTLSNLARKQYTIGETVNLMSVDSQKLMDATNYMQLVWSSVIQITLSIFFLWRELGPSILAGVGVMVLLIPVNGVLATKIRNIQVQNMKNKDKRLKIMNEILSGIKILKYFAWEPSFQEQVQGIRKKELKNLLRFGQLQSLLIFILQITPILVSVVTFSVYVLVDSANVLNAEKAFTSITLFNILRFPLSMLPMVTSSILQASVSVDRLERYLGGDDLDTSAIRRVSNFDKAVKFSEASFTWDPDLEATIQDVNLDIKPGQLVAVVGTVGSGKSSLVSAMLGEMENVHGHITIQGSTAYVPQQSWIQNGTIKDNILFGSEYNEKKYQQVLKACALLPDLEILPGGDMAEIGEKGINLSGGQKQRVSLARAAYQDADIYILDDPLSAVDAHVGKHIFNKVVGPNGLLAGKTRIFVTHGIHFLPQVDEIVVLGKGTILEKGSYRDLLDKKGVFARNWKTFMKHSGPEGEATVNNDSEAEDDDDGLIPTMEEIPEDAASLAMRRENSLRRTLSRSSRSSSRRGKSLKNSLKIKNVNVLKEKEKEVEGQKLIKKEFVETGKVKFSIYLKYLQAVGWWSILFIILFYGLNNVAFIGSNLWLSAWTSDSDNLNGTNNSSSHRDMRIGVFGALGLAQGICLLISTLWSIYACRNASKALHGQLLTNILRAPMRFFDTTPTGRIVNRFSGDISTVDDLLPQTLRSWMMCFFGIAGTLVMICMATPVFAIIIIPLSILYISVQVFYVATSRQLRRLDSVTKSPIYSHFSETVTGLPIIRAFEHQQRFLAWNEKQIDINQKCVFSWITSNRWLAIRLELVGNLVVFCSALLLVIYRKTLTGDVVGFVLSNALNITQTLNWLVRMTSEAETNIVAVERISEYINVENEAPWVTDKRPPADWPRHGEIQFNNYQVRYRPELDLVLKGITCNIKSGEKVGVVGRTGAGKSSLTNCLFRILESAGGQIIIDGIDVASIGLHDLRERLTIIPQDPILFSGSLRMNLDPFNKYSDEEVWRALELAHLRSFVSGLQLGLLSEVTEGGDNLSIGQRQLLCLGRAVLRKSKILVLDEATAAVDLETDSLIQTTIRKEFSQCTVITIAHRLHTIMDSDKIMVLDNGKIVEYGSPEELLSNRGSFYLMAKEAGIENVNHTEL

SMILES | Activity
CCC1(c2ccccc2)C(=O)NC(=O)NC1=O [PHENOBARBITAL] | inducer [+]
CC(=O)[C@H]1[C@H](C#N)C[C@H]2[C@@H]3CC=C4C[C@@H](O)CC[C@]4(C)[C@H]3CC[C@@]21C [PREGNENOLONE CARBONITRILE] | inducer [+]

— ChEMBL document CHEMBL2074139, “Increase in bile flow and biliary excretion of glutathione-derived sulfhydryls in rats by drug-metabolizing enzyme inducers is mediated by multidrug resistance protein 2” (Toxicol Sci, 2002)
